This note sets out measurements from PubChem BioAssay (NCI).

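Assay format: 96-well plates, 48-hour exposure. Here, GI50 denotes the concentration required for 50% inhibition of growth. TGI: total growth inhibition.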

Among the test systems are A498 renal; UACC-62 melanoma; LOX IMVI melanoma; NCI-H23 lung; OVCAR-4 ovarian; OVCAR-5 ovarian; HCT-15 colon; OVCAR-3 ovarian; TK-10 renal; HOP-62 NSCLC.
What all share (assay): inhibition of tumour cell growth, NCI panel, 48 h

Take `O=C1CCCCC2N(C(c3ccccc3)c3ccccc3)CC[C@@]12c1ccccc1` (mixture of isomers): the TGI in the test on A498 renal, in the test on UACC-62 melanoma, in the test with LOX IMVI melanoma, with NCI-H23 lung, in the test on OVCAR-4 ovarian and in the test on OVCAR-5 ovarian was greater than 10 µM throughout. Besides, the TGI with HCT-15 colon, in the test with OVCAR-3 ovarian and with TK-10 renal was greater than 10 µM in each case.

In the case of `C=C(C)C(=O)OC1CCC2(C)C(CCC3C2CCC2(C)C(c4ccc(=O)oc4)CC4OC432)C1` (stereo not given), the TGI with A498 renal worked out at 21.8 µM; in the test with UACC-62 melanoma, 17.2 µM; in the test with LOX IMVI melanoma, 24.1 µM; in the test on NCI-H23 lung, 19.3 µM; with OVCAR-4 ovarian, 34 µM; with OVCAR-5 ovarian, 106 µM. The TGI in the test with HCT-15 colon was 32 µM; in the test with OVCAR-3 ovarian it was 15.1 µM; in the test with HOP-62 NSCLC it was 10.5 µM.

In the case of `Cc1cc(O)c(C(C)(C)C)cc1Sc1cc(C(C)(C)C)c(O)cc1C`, the GI50 in the test with A498 renal is 2.21 µM; in the test with UACC-62 melanoma, 1.32 µM; with LOX IMVI melanoma, 1.97 µM; in the test on NCI-H23 lung, 3.49 µM; with OVCAR-4 ovarian it was 3.16 µM; in the test with OVCAR-5 ovarian, 1.93 µM. The GI50 in the test on HCT-15 colon was 2.96 µM; in the test on OVCAR-3 ovarian it was 2.23 µM; in the test on TK-10 renal, 2.54 µM; in the test on HOP-62 NSCLC, 2.11 µM. Moreover, the TGI with A498 renal turned out to be 6.29 µM; in the test on UACC-62 melanoma it was 3.11 µM; with LOX IMVI melanoma it was 3.64 µM; in the test with NCI-H23 lung, 11.8 µM; in the test on OVCAR-4 ovarian, 12.5 µM; in the test on OVCAR-5 ovarian it was 4 µM. Besides, the TGI is 11.8 µM in the test on HCT-15 colon, 5.45 µM in the test with OVCAR-3 ovarian, 6.22 µM in the test on TK-10 renal and 4.74 µM in the test with HOP-62 NSCLC.

With `N#Cc1c(Cl)c2cc([N+](=O)[O-])ccc2n2c1nc1ccccc12`, the TGI in the test with A498 renal is greater than 55.6 µM; with UACC-62 melanoma it was 35.4 µM; in the test with LOX IMVI melanoma it was 3.05 µM; with NCI-H23 lung it was 35.8 µM; in the test on OVCAR-4 ovarian it was 3.58 µM; in the test with OVCAR-5 ovarian it was 16.5 µM. For the same molecule, the TGI in the test on HCT-15 colon was determined as 2.3 µM; in the test on OVCAR-3 ovarian it was 29.6 µM; in the test with TK-10 renal it was 8.95 µM; in the test on HOP-62 NSCLC it was 47.4 µM.

Take `CCOC(=O)CN=C1NNS(=O)(=O)c2ccccc21`: the TGI in the test with A498 renal, in the test with UACC-62 melanoma, in the test with LOX IMVI melanoma, in the test on NCI-H23 lung, in the test with OVCAR-4 ovarian and in the test on OVCAR-5 ovarian was greater than 100 µM in each case. Further, the TGI in the test with HCT-15 colon, in the test on OVCAR-3 ovarian, in the test on TK-10 renal and in the test on HOP-62 NSCLC was greater than 100 µM throughout.

In the case of `Clc1ccccc1/C=C/c1cscn1`, the TGI in the test on A498 renal, with UACC-62 melanoma, in the test with LOX IMVI melanoma, in the test with NCI-H23 lung, with OVCAR-4 ovarian and in the test with OVCAR-5 ovarian was greater than 100 µM each time. In addition, the TGI in the test on HCT-15 colon, in the test with OVCAR-3 ovarian, in the test with TK-10 renal and in the test on HOP-62 NSCLC was greater than 100 µM throughout.

On to `NCCCCC(N)C(=O)NCCNc1ccc(NCCNC(=O)C(N)CCCCN)c2c1C(=O)c1ccccc1C2=O` (stereo not given), for which the TGI in the test with A498 renal, with UACC-62 melanoma, in the test with LOX IMVI melanoma, in the test with NCI-H23 lung, in the test on OVCAR-4 ovarian and in the test with OVCAR-5 ovarian was greater than 100 µM throughout. Besides, the TGI in the test on HCT-15 colon, in the test on OVCAR-3 ovarian, with TK-10 renal and with HOP-62 NSCLC was greater than 100 µM in each case.

As to `O=C(O)Cc1cc(O)c(CC(=O)O)cc1O`, the TGI with A498 renal, in the test with UACC-62 melanoma, in the test on LOX IMVI melanoma, with NCI-H23 lung, in the test on OVCAR-4 ovarian and in the test with OVCAR-5 ovarian was greater than 100 µM each time. Moreover, the TGI in the test on HCT-15 colon, in the test with OVCAR-3 ovarian, in the test with TK-10 renal and in the test with HOP-62 NSCLC was greater than 100 µM in each case.

`CCOC(=O)C(O)(NC(=O)c1ccc(F)cc1)C(F)(F)F` (stereo not given): the TGI with UACC-62 melanoma, with LOX IMVI melanoma, with NCI-H23 lung, with OVCAR-4 ovarian, in the test on OVCAR-5 ovarian and in the test with HCT-15 colon was greater than 100 µM in each case. In addition, the TGI in the test on OVCAR-3 ovarian, with TK-10 renal and with HOP-62 NSCLC was greater than 100 µM in each case.

On to `O=C1NN(C2=NNC3(C(=O)N2)c2ccccc2-c2ccccc23)C(c2ccccc2)=N/C1=C/c1ccc(O)cc1`, for which the GI50 is 33.5 µg/mL in the test on UACC-62 melanoma; 32.2 µg/mL in the test on LOX IMVI melanoma; 61.5 µg/mL in the test on NCI-H23 lung; 57.5 µg/mL in the test with OVCAR-4 ovarian; greater than 150 µg/mL with OVCAR-5 ovarian; 49.6 µg/mL with HCT-15 colon. Also, the GI50 in the test on OVCAR-3 ovarian was 55.1 µg/mL; with TK-10 renal, 39.1 µg/mL; in the test with HOP-62 NSCLC, 39.9 µg/mL. In addition, the TGI with UACC-62 melanoma is 92.2 µg/mL; with LOX IMVI melanoma, 71.3 µg/mL; in the test on NCI-H23 lung, greater than 150 µg/mL; with OVCAR-4 ovarian, greater than 150 µg/mL; with OVCAR-5 ovarian, greater than 150 µg/mL; in the test on HCT-15 colon, greater than 150 µg/mL. For the same molecule, the TGI in the test with OVCAR-3 ovarian is greater than 150 µg/mL; in the test on TK-10 renal, 71.9 µg/mL; in the test with HOP-62 NSCLC, 138 µg/mL.

For the molecule `C=CC1(C)CCC2=C(CCC3C(C)(C(=O)OC)CCCC23C)C1=O` (stereo not given), the TGI turned out to be 28.4 µM in the test with A498 renal; 33.7 µM in the test with UACC-62 melanoma; 34.3 µM with LOX IMVI melanoma; 54.5 µM with NCI-H23 lung; 28.2 µM in the test on OVCAR-4 ovarian; 29.5 µM with OVCAR-5 ovarian. The TGI in the test on HCT-15 colon was 42.7 µM; in the test on OVCAR-3 ovarian, 35.3 µM; in the test with TK-10 renal it was 56.4 µM; in the test on HOP-62 NSCLC it was 31.3 µM.

`Cn1c(=O)c2[nH]c(CCCCC(=O)O)nc2n(C)c1=O`: the TGI in the test with A498 renal, with UACC-62 melanoma, with LOX IMVI melanoma, with NCI-H23 lung, with OVCAR-4 ovarian and in the test on OVCAR-5 ovarian was greater than 100 µM in each case. Moreover, the TGI in the test on HCT-15 colon, in the test with OVCAR-3 ovarian, in the test with TK-10 renal and in the test on HOP-62 NSCLC was greater than 100 µM throughout.

Take `O=C(N/N=C\c1cccc(O)c1)c1ccncc1`: the TGI in the test on A498 renal, in the test on UACC-62 melanoma, with LOX IMVI melanoma, with NCI-H23 lung, with OVCAR-4 ovarian and in the test on OVCAR-5 ovarian was greater than 100 µM throughout. The TGI in the test on HCT-15 colon, in the test with OVCAR-3 ovarian, in the test with TK-10 renal and with HOP-62 NSCLC was greater than 100 µM throughout.

On to `Cc1nc2ccccc2n1C(=O)c1c(F)c(F)c(F)c(F)c1F`, for which the TGI with A498 renal was 57 µM; with UACC-62 melanoma it was 44.1 µM; in the test with LOX IMVI melanoma, 25.1 µM; in the test on NCI-H23 lung, 56.2 µM; in the test on OVCAR-4 ovarian it was 29 µM; in the test on OVCAR-5 ovarian it was 40.8 µM. Moreover, the TGI in the test on HCT-15 colon came out at 33.9 µM; with OVCAR-3 ovarian, 71.6 µM; in the test with TK-10 renal, 66.3 µM; with HOP-62 NSCLC, 68.3 µM.
